# Data as given in patent publication US10768157B2, “Materials and methods for the detection of trace amounts of substances in biological and environmental samples” (THE FLORIDA INTERNATIONAL UNIVERSITY BOARD OF TRUSTEES, priority 2015, dated 2020).
# Where two headings read alike, the source gives them in different places.
# What was measured:
# [1] = Selectivity: imprinting factor of multi-template sol-gel MIP vs NIP; format: binding; details: extraction from protein precipitated milk
# Description: The selectivity of MIP particles for the six sulfonamides was tested. For these experiments were used SPE cartridges packed with 30 mg of MIP and NIP particles respectively. Standard solutions containing 5 ng μL^−1 were passed through the SPE cartridges by holding imprinted or non-imprinted particles at a flow rate of 1 mL/min by the aid of a vacuum system. Several antibiotics have similar structure to the sulfonamides as well as antibiotics with different structure and functional groups were studied (chloramphenicol, thiamphenicol, florphenicol, flumequine, sulfisoxazole, sulfamethoxazole, sulfadimethoxine). The extraction on each antibiotic based on the optimum conditions and the extracted antibiotics were determined by the HPLC system. Imprinting factor (IF) of MIP particles was determined by the following equation: […] Capacity Studies […] So, SPE was prepared for MIP and NIP. Imprinting factor (IF), which is an indicators, express the adsorption affinity of recognition sites to the imprinted sulfonamides. Table 12 summarizes the IF values for the examined sulfonamides when extraction was carried out from protein precipitated milk.
# [2] = Selectivity study of CAP-imprinted sol-gel MIP vs sol-gel NIP in MIPSPE column (imprinting factor, selectivity coefficient), HPLC-UV; format: binding; details: for Selectivity Coefficient (SC): SC=IF CAP/IF other analyte, untreated raw milk; for Imprinting Factor (IF): extraction from untreated raw milk, sol-gel MIP vs NIP
# Excerpt: To establish the selectivity of a sol-gel MIP for a particular analyte, a non-imprinted polymer (sol-gel NIP) is synthesized in the same way as sol-gel MIP but in the absence of the template.
# The IF reflects the tendency of the MIP to selectively recognize and bind the template. Competitive adsorption of MIP and NIP for CAP was investigated in a MIPSPE column system. The IF and the selectivity coefficient (SC) are indicators of the adsorption affinity of recognition sites to the imprinted CAP.
# The selectivity of sol-gel MIP particles for CAP was studied. For this purpose, 30 mg of sol-gel MIP or sol-gel NIP particles were packed in SPE cartridges. Aqueous sample solutions containing 10 ng/mL CAP was passed through the SPE cartridges holding imprinted or non-imprinted particles at a flow rate of 1 mL/min by the aid of a vacuum system. Elution of the extracted chloramphenicol was performed using methanol and the concentration of chloramphenicol was determined by the HPLC-UV method.
# Imprinting factor (IF) of sol-gel MIP particles was determined by the following equation: IF=Kmip/Knip where Kmip and Knip are the partition coefficient of analyte for sol-gel MIP and sol-gel NIP, respectively, which are determined by K=Cb/Cu where Cb is the amount of CAP bound by the sol-gel MIP or sol-gel NIP and Cu is the concentration of free chloramphenicol that remained in the solution.
# Selectivity coefficient (SC) was calculated by the following equation: SC=IFCAP/IFother_analyte
# [3] = Maximum adsorption capacity of the sol-gel molecularly imprinted sorbent (six sulfa drugs); format: binding; details: 30 mg MIP, mixture of 6 sulfa drugs 10-1000 mg/L
# Description: In order to calculate the sorption capacity at equilibrium a SPE cartridge packed with 30 mg of MIP particles was used. Experiments under optimum conditions were carried out sequentially on the same SPE cartridge. In each subsequent test, the initial concentration was increased in a range 10-1000 ng μL^-1 and the final concentration was determined by HPLC-DAD. The amount of adsorbed (mg/g) was calculated by using the formula reported by Vanderborght and Van […]:00002} Were Ci is the initial concentration (mg/L), Ce is the equilibrium concentration (mg/L), V is the volume (L) and m is the mass (g) of the adsorbent. […] The final Ce concentrations were calculated on HPLC. The maximum capacity (Q, mg/g) for each of the six compounds was determined with the above equation. The results are represented in FIG. 12.
# [4] = Retention (sorption) capacity of the CAP-imprinted sol-gel sorbent; format: binding; details: 30 mg polymer saturated with 100 mg/L CAP solution
# Description: To determine the retention capacity (or sorption capacity) of the sol-gel derived CAP-imprinted polymer (maximum amount of the template retained by 1 g of MIP), 30 mg of polymer were saturated with CAP by passing several 5.0 mL aliquots of 100 mg/L CAP solution.
# [5] = Stability of CAP standard solutions; format: physicochemical
# [6] = cited from earlier work
# [7] = Honey, Magnetic SPE, LC-MS/MS (ref a)
Compound,Imprinting Factor (IF) [1],Imprinting Factor (IF) [2],"Adsorption Capacity, Q [3] [mg/g]",other results
Sulfamethizole,4.52,,,
Nc1ccc(S(N)(=O)=O)cc1 [Sulfanilamide],1.56,,,
florfenicol [FFC],,1.8,,Selectivity Coefficient (SC) [2]: 2.8
Nc1ccc(S(=O)(=O)Nc2nccs2)cc1 [Sulfathiazole],3.90,,9.8,
Chloramphenicol [CAP],,5,,"Imprinting factor (IF), maximum ([2]; CAP, protein precipitated milk, MIP relative to NIP): 9.7; Retention capacity / adsorption capacity of CAP [4]: 23 mg/g; Retention capacity / adsorption capacity of CAP ([4]; listed as chloramphenicol): 23.0 mg/g; Stability of working standard solutions ([5]; 0.05-20 ng/μL in water, refrigerated): stable for the same period of time; Stability of stock solution ([5]; 100 mg/L in water, kept at 4° C.): at least 3 months; Imprinting Factor ([6]; Honey, MISPE, HPLC-UV (ref f)): 2.2; Adsorption Capacity [6, 7]: 5.53 mg/g; Imprinting Factor [6, 7]: 1.375; Imprinting Factor ([6]; Honey/Urine, MISPE, LC-MS/MS (ref d)): 2.43; Adsorption Capacity ([6]; Milk, MISPE, HPLC-UV (ref e)): 2.22 mg/g; Imprinting Factor ([6]; Milk, MISPE, HPLC-UV (ref e)): 1.38"
"CS(=O)(=O)c1ccc([C@@H](O)[C@@H](CO)NC(=O)C(Cl)Cl)cc1 [THF, thiamphenicol]",,1.9,,Selectivity Coefficient (SC) [2]: 2.6
CC(=O)NS(=O)(=O)c1ccc(N)cc1 [Sulfacetamide],2.70,,5.1,
Cc1ccnc(NS(=O)(=O)c2ccc(N)cc2)n1 [Sulfamerazine],1.13,,3.7,
Nc1ccc(S(=O)(=O)Nc2ncccn2)cc1 [Sulfadiazine],1.70,,4.2,
